Patent US20230355810A1, “Semifluorocarbon Compound Containing Contrast Agent” (B. Braun Melsungen AG, priority 2013, published 2023)
One block for each compound: values may come before it.

Columns and labels:
[1] = Miscibility / solubility of the fluorinated compound in the oil (MCT, PFOB); format: physicochemical
Procedure: The emulsion of the invention comprises the semifluorinated compound and preferably the mid-chain triglyceride (MCT). According to one aspect of the invention the oil components of the emulsion form a homogeneous solution at 20° C. […] The oil phase may comprise further oil components such as long chain fatty acid triglycerides based on vegetable oil or marine oils such as fish oil. The amount of the further oil components is preferable adjusted that a completely miscible oil phase is maintained. Generally, the amount of oil components which are different from the semifluorinated compound and triglyceride b) which is preferably the MCT, are less than 50 weight percent (wt.-%), preferably less than 40 wt.-%, more preferably less than 30 wt.-%, further preferably less than 20 wt.-%, especially less than 10 wt.-%, in particular less than 5 wt.-% or essentially free, wherein the amount is based on the total weight of the oil components.
Perfluoroctylbromide (PFOB) is a known contrast agent for the magnetic resonance spectroscopy.

[2] = Density measurement of mixtures of MCT and F6H8; format: physicochemical; details: based on the total weight of the oil phase, FIG. 1C
Excerpt: By adapting the density of the oil phase to the density of the aqueous phase coalescence phenomena of the droplets as well as sedimentation phenomena, which destabilize the emulsion, can be decreased.
At about 38.5 wt.-% of F6H8 and about 61.5 wt.-% of MCT, (weight based on the total weight of the oil phase) the density of the oil mixture corresponds to the density of the aqueous phase.

solubility in MCT [1]: cannot be dissolved in MCT
SMILES: FC(F)(F)C(F)(F)C(F)(F)C(F)(F)C(F)(F)C(F)(F)C(F)(F)C(F)(F)Br [PFOB, Perfluoroctylbromide]

solubility in PFOB [1]: can be dissolved in PFOB
SMILES: FC(F)(F)C(F)(F)C(F)(F)C(F)(F)C(F)(F)C(F)(F)C(F)(F)C(F)(F)C(F)(F)C(F)(F)Br [PFDB, perfluorodecylbromide]

miscibility with MCT ([1]; 20° C.): miscible at 20 °C
share of F6H8 in the oil phase (rest MCT, about 61.5 wt.-%) at which the density of the oil mixture corresponds to the density of the aqueous phase [2]: about 38.5 wt.-%
SMILES: CCCCCCCCC(F)(F)C(F)(F)C(F)(F)C(F)(F)C(F)(F)C(F)(F)F [Example F6H8, perfluorohexyloctane]
